Some test systems named below: A498 renal; HCT-15 colon; KM12 colon; MDA-MB-435; OVCAR-3 ovarian; SK-MEL-28 melanoma; SNB-19 CNS; SNB-75 CNS; DLD-1 colon; M19-MEL melanoma.
What all share (test): inhibition of tumour cell growth, NCI panel, 48 h

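Test compounds were applied to cells in 96-well plates for 48 hours at 5 doses. At the GI50, growth is halved. TGI: total growth inhibition.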 Where only a bound is given, the exact number is not on record here.

With `CCCCCCN(CCCCCC)CC(O)c1cccc2ccc(Cl)cc12` (stereo not given), the GI50 in the experiment on A498 renal was 10.4 µM; in the experiment with HCT-15 colon, 5.01 µM; with KM12 colon, 5.48 µM; with MDA-MB-435, 10.2 µM; with OVCAR-3 ovarian, 13 µM; with SK-MEL-28 melanoma it was 12 µM. Also, the GI50 in the experiment on SNB-19 CNS is 12.9 µM; in the experiment with SNB-75 CNS it was 7.43 µM. Further, the TGI was determined as 22.3 µM with A498 renal; 18.3 µM in the experiment on HCT-15 colon; 19.6 µM in the experiment on KM12 colon; 29.4 µM with MDA-MB-435; 26 µM in the experiment with OVCAR-3 ovarian; 24.3 µM in the experiment on SK-MEL-28 melanoma. Further, the TGI in the experiment with SNB-19 CNS came to 26.6 µM; in the experiment with SNB-75 CNS, 20.6 µM.

Regarding `COc1cc2c(cc1OC)[C@H]1C(=O)c3cc4c(cc3[C@H]1N(C)C2=O)OCO4`, the TGI in the experiment with A498 renal is more than 79.5 µM; in the experiment with HCT-15 colon, more than 100 µM; with KM12 colon, more than 100 µM; in the experiment with MDA-MB-435, more than 100 µM; in the experiment on OVCAR-3 ovarian, more than 100 µM; with SK-MEL-28 melanoma it was more than 100 µM. The TGI in the experiment with SNB-19 CNS and in the experiment with SNB-75 CNS was more than 100 µM each time.

With `Nc1ncnc2c1ncn2Cc1ccc(C23CC4CC(CC(C4)C2)C3)c(O)c1`, the GI50 is 15.8 µM in the experiment on A498 renal; 58.6 µM in the experiment on HCT-15 colon; 13.7 µM in the experiment with KM12 colon; 15 µM with MDA-MB-435; 17.2 µM with OVCAR-3 ovarian; 18.9 µM in the experiment with SK-MEL-28 melanoma. For the same compound, the GI50 was 30.3 µM in the experiment on SNB-19 CNS and 13.4 µM with SNB-75 CNS. Also, the TGI in the experiment with A498 renal was 49.8 µM; with HCT-15 colon, more than 100 µM; in the experiment on KM12 colon, more than 100 µM; with MDA-MB-435 it was more than 100 µM; in the experiment on OVCAR-3 ovarian, more than 100 µM; in the experiment on SK-MEL-28 melanoma, more than 100 µM. The figures for the TGI in the experiment on SNB-19 CNS and in the experiment on SNB-75 CNS were more than 100 µM and 40 µM, respectively.

Take `CCOc1cccnc1/C=N/NC(N)=S`: the GI50 in the experiment on A498 renal is 3.95 µM; in the experiment with HCT-15 colon it was 4.08 µM; in the experiment on KM12 colon, 4.38 µM; in the experiment on MDA-MB-435, 4.53 µM; in the experiment with OVCAR-3 ovarian, 4.44 µM; in the experiment with SK-MEL-28 melanoma, 4.75 µM. For the same compound, the GI50 is 4.43 µM in the experiment on SNB-19 CNS and 3.84 µM in the experiment with SNB-75 CNS. Further, the TGI in the experiment with A498 renal, in the experiment with HCT-15 colon, in the experiment on KM12 colon, in the experiment on MDA-MB-435, in the experiment on OVCAR-3 ovarian and in the experiment with SK-MEL-28 melanoma was more than 100 µM in each case. The TGI in the experiment on SNB-19 CNS and with SNB-75 CNS was more than 100 µM in each case.

Consider `COc1cc(C(=O)N/N=C/c2cccc([N+](=O)[O-])c2)cc(OC)c1OC`, for which the GI50 in the experiment with A498 renal is 1.79 µM; in the experiment with HCT-15 colon it was 6.78 µM; with KM12 colon, 2.41 µM; with MDA-MB-435, 1.09 µM; in the experiment with OVCAR-3 ovarian, 2.39 µM; in the experiment on SK-MEL-28 melanoma, 39.3 µM. For the same compound, the GI50 was 55.1 µM with SNB-19 CNS and 6.92 µM in the experiment on SNB-75 CNS. Moreover, the TGI in the experiment on A498 renal was 7.29 µM; with HCT-15 colon, more than 100 µM; with KM12 colon, more than 100 µM; in the experiment with MDA-MB-435, 3.88 µM; in the experiment on OVCAR-3 ovarian, 6.64 µM; in the experiment on SK-MEL-28 melanoma it was more than 100 µM. Further, the figures for the TGI with SNB-19 CNS and in the experiment on SNB-75 CNS were more than 100 µM and 56.1 µM, respectively.

With `CC1SC2(CCCCC2)N(NC(=O)c2[nH]c3ccc(F)cc3c2-c2ccccc2)C1=O` (stereo not given), the GI50 in the experiment with A498 renal is more than 100 µM; in the experiment on HCT-15 colon, more than 100 µM; in the experiment on KM12 colon, 63.7 µM; with MDA-MB-435, more than 100 µM; in the experiment with OVCAR-3 ovarian, 25.2 µM; with SK-MEL-28 melanoma it was more than 100 µM. The GI50 in the experiment on SNB-19 CNS was 55.6 µM; in the experiment on SNB-75 CNS, 27.2 µM. Further, the TGI in the experiment on A498 renal, in the experiment on HCT-15 colon, in the experiment with KM12 colon, in the experiment with MDA-MB-435, in the experiment on OVCAR-3 ovarian and with SK-MEL-28 melanoma was more than 100 µM in each case. Further, the TGI with SNB-19 CNS is more than 100 µM; in the experiment on SNB-75 CNS, 62 µM.

As to `CCOC(=O)C1=C(c2ccccc2)N(Cc2ccccc2)C2(O)C=CC(=O)C3C(=O)N(c4ccccc4)C(=O)C132` (stereo not given), the GI50 in the experiment with A498 renal is 1.62 µM; in the experiment with HCT-15 colon, 1.7 µM; with KM12 colon, 1.74 µM; with MDA-MB-435, 1.95 µM; with OVCAR-3 ovarian, 2.11 µM; in the experiment on SK-MEL-28 melanoma, 1.73 µM. Further, the GI50 was 2 µM in the experiment with SNB-19 CNS and 2.1 µM in the experiment with SNB-75 CNS. For the same compound, the TGI came out at 3.12 µM with A498 renal; 3.67 µM in the experiment on HCT-15 colon; 3.21 µM with KM12 colon; 4.51 µM in the experiment on MDA-MB-435; 4.33 µM in the experiment with OVCAR-3 ovarian; 3.85 µM in the experiment with SK-MEL-28 melanoma. Also, the results for the TGI in the experiment with SNB-19 CNS and in the experiment with SNB-75 CNS were 4.59 µM and 4.62 µM, respectively.

Take `COc1cc2c(c(OC)c1OC)-c1ccc(SC)c(=O)cc1[C@@H](NC(=O)c1ccc(C#N)cc1)CC2`: the TGI with DLD-1 colon is more than 100 µM; with HCT-15 colon it was more than 100 µM; in the experiment on M19-MEL melanoma, more than 100 µM; with OVCAR-3 ovarian, less than 0.0108 µM; in the experiment on SK-MEL-28 melanoma, more than 100 µM; with SNB-75 CNS, 92.4 µM.

`CCCCCCCCCCCCNC(=O)[C@H]1CSC(c2ccc(OC)c(F)c2)N1` (stereo not given in full): the GI50 in the experiment on A498 renal is 1.78 µM; in the experiment on HCT-15 colon it was 1.78 µM; in the experiment on KM12 colon, 0.335 µM; in the experiment on MDA-MB-435 it was 0.193 µM; with OVCAR-3 ovarian, 1.45 µM; in the experiment with SK-MEL-28 melanoma it was 0.342 µM. The GI50 with SNB-19 CNS is 1.95 µM; with SNB-75 CNS, 0.468 µM. The TGI turned out to be 3.28 µM with A498 renal; 3.39 µM in the experiment on HCT-15 colon; 1.14 µM with KM12 colon; 0.385 µM with MDA-MB-435; 3.26 µM in the experiment with OVCAR-3 ovarian; 1.11 µM in the experiment with SK-MEL-28 melanoma. Also, the TGI came out at 3.66 µM in the experiment on SNB-19 CNS and 1.01 µM with SNB-75 CNS.

For the compound `Cc1nn(C(=O)c2ccccc2O)c2c1C(c1ccc(O)cc1)SC(N)=N2` (stereo not given), the TGI with A498 renal was more than 10 µM; with HCT-15 colon, more than 10 µM; in the experiment with KM12 colon, more than 10 µM; in the experiment with MDA-MB-435, more than 10 µM; with OVCAR-3 ovarian it was more than 6.89 µM; in the experiment with SK-MEL-28 melanoma, more than 10 µM. In addition, the TGI in the experiment with SNB-19 CNS is more than 10 µM; with SNB-75 CNS, 8.56 µM.

On to `O=C1c2ccccc2C(=O)c2c1ccc1c3ccccc3n(Cc3ccccc3)c21`, for which the TGI in the experiment on DLD-1 colon, in the experiment on HCT-15 colon, in the experiment with KM12 colon, in the experiment on M19-MEL melanoma, with OVCAR-3 ovarian and in the experiment with SNB-75 CNS was more than 100 µM each time.

The values above are taken from PubChem BioAssay (NCI).
